Some test systems named below: HL-60(TB) leukemia; SW-620 colon; ACHN renal; UO-31 renal; NCI-H226 lung; NCI-H23 lung; SK-OV-3 ovarian; UACC-257 melanoma; RXF 393 renal; SK-MEL-28 melanoma.
Common to all, as to experiment: inhibition of tumour cell growth, NCI panel, 48 h

Experimental findings from PubChem BioAssay (NCI) are described below.

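In this assay, cells in 96-well plates receive the compound at five concentrations for 48 hours. Endpoints are linearly interpolated between the surrounding concentrations. GI50: concentration for 50% inhibition of growth. Definition used: TGI = concentration required for complete inhibition of growth.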 Where only a bound is given, the exact number is not on record here.

Turning to `Cc1ccc(/C=C2\CN(C(=O)OC(C)(C)C)C/C(=C\c3ccc(C)cc3)C2=O)cc1`, the GI50 in the assay on HL-60(TB) leukemia was 0.0409 µM; with SW-620 colon, 0.437 µM; with ACHN renal, 1.06 µM; in the assay with UO-31 renal, 1.16 µM; with NCI-H23 lung, 0.516 µM; with RXF 393 renal, 0.0625 µM. In addition, the GI50 in the assay with SK-MEL-28 melanoma was 11.6 µM. The TGI was 0.473 µM with HL-60(TB) leukemia; > 100 µM in the assay with SW-620 colon; > 100 µM with ACHN renal; > 100 µM in the assay on UO-31 renal; > 100 µM in the assay on NCI-H226 lung; > 100 µM in the assay on NCI-H23 lung. For the same molecule, the TGI was 97.5 µM with SK-OV-3 ovarian, > 100 µM with UACC-257 melanoma, 4.36 µM in the assay with RXF 393 renal and > 100 µM in the assay with SK-MEL-28 melanoma.
In the case of `Cc1ccc(C(=O)O/N=C2/CCC/C2=C\c2ccccc2)cc1`, the TGI with HL-60(TB) leukemia, in the assay on SW-620 colon, with ACHN renal, in the assay with UO-31 renal, with NCI-H226 lung and with NCI-H23 lung was > 100 µM each time. Further, the TGI in the assay with SK-OV-3 ovarian, with UACC-257 melanoma, in the assay on RXF 393 renal and with SK-MEL-28 melanoma was > 100 µM in each case.
As for `Cc1occc1C(=S)Nc1ccc(Cl)c(COC(C)(C)C)c1`, the TGI in the assay on HL-60(TB) leukemia amounted to 45 µM; in the assay on SW-620 colon, 33.5 µM; in the assay with ACHN renal, 31.1 µM; in the assay with UO-31 renal it was 26 µM; in the assay with NCI-H226 lung it was 34.2 µM; in the assay on NCI-H23 lung it was 35.7 µM. Also, the TGI in the assay with SK-OV-3 ovarian came to 34 µM; in the assay with UACC-257 melanoma it was 31.3 µM; in the assay on RXF 393 renal it was 32.3 µM; with SK-MEL-28 melanoma, 30.1 µM.
Turning to `N#CC(C(=O)/C(=N/NC(=O)c1ccccc1O)C(C#N)c1ccc(Cl)cc1)c1ccc(Cl)cc1` (configuration not stated), the TGI with HL-60(TB) leukemia amounted to 53.1 µM; in the assay on SW-620 colon it was 29.1 µM; with ACHN renal, 29.6 µM; in the assay on UO-31 renal, 30.9 µM; in the assay on NCI-H226 lung, 31.8 µM; in the assay on NCI-H23 lung, 23.7 µM. For the same molecule, the TGI with SK-OV-3 ovarian was determined as 90.5 µM; in the assay on UACC-257 melanoma it was 27.7 µM; in the assay on RXF 393 renal it was 16.4 µM; in the assay on SK-MEL-28 melanoma, 27.7 µM.
Take `NC(=S)N/N=C(/CC(=O)c1ccccc1)C(=O)Nc1ccc(Cl)c(Cl)c1`: the TGI with HL-60(TB) leukemia, in the assay with SW-620 colon, with ACHN renal, with UO-31 renal, in the assay with NCI-H226 lung and in the assay on NCI-H23 lung was > 100 µM in each case. Moreover, the TGI with SK-OV-3 ovarian, with UACC-257 melanoma, with RXF 393 renal and in the assay on SK-MEL-28 melanoma was > 100 µM throughout.
Turning to `CC(C)C(=O)Nc1nc2nc[nH]c2c(=O)[nH]1`, the TGI with HL-60(TB) leukemia, in the assay with SW-620 colon, in the assay on ACHN renal, in the assay with UO-31 renal, with NCI-H226 lung and with NCI-H23 lung was > 100 µM each time. Also, the TGI in the assay on SK-OV-3 ovarian, in the assay with UACC-257 melanoma, with RXF 393 renal and in the assay on SK-MEL-28 melanoma was > 100 µM throughout.
In the case of `C=C1C(=O)O[C@H]2[C@H]1CC/C(COC(=O)NCc1ccccc1OC)=C\CC[C@@]1(C)O[C@@H]21`, the GI50 with HL-60(TB) leukemia is 1.61 µM; in the assay with SW-620 colon it was 0.768 µM; with ACHN renal, 1.27 µM; in the assay with UO-31 renal, 1.68 µM; in the assay with NCI-H226 lung, 2.11 µM; in the assay on NCI-H23 lung it was 1.74 µM. In addition, the GI50 in the assay with SK-OV-3 ovarian is 13.5 µM; with UACC-257 melanoma, 1.48 µM; with RXF 393 renal it was 1.04 µM; in the assay with SK-MEL-28 melanoma, 1.52 µM. Moreover, the TGI came out at 5.77 µM in the assay with HL-60(TB) leukemia; 3.16 µM in the assay on SW-620 colon; 2.85 µM in the assay on ACHN renal; 3.18 µM in the assay on UO-31 renal; 4.96 µM in the assay with NCI-H226 lung; 4.11 µM with NCI-H23 lung. The TGI in the assay with SK-OV-3 ovarian was determined as 26.8 µM; with UACC-257 melanoma, 3.51 µM; in the assay on RXF 393 renal, 2.57 µM; with SK-MEL-28 melanoma it was 3.61 µM.
For the molecule `COC1(C(=O)N[C@@H](C)c2ccc(-n3cc(F)cn3)nc2)CCC(c2nc(C)cc(Nc3cc(C)[nH]n3)n2)CC1` (some centres not stated), the GI50 is 19.5 µM in the assay with HL-60(TB) leukemia; 2.32 µM in the assay on SW-620 colon; 1.01 µM in the assay on ACHN renal; 0.436 µM in the assay with UO-31 renal; 0.222 µM with NCI-H226 lung; 2.6 µM in the assay with NCI-H23 lung. Besides, the GI50 in the assay on SK-OV-3 ovarian is 1.11 µM; in the assay on UACC-257 melanoma, 10.9 µM; in the assay with RXF 393 renal, 0.177 µM; in the assay on SK-MEL-28 melanoma, 10.2 µM. Besides, the TGI with HL-60(TB) leukemia was 41.8 µM; in the assay on SW-620 colon it was 24.2 µM; in the assay with ACHN renal it was 3.49 µM; in the assay with UO-31 renal, 1.99 µM; with NCI-H226 lung, 11.7 µM; with NCI-H23 lung, 19.9 µM. For the same molecule, the TGI is 5.07 µM in the assay with SK-OV-3 ovarian, 26.5 µM in the assay on UACC-257 melanoma, 0.665 µM in the assay with RXF 393 renal and 22.5 µM in the assay on SK-MEL-28 melanoma.
As to `CC(C)(C)C[C@H]1NC(C(=O)NCC[C@H](O)CO)[C@H](c2cccc(Cl)c2)[C@@]12C(=O)Nc1cc(Cl)c(F)cc12` (some centres not stated), the GI50 in the assay on HL-60(TB) leukemia is 14.7 µM; in the assay on SW-620 colon, 16.6 µM; with ACHN renal, 3.28 µM; in the assay with UO-31 renal it was 5.13 µM; with NCI-H226 lung, 2.46 µM; in the assay with NCI-H23 lung, 18.7 µM. For the same molecule, the GI50 was 16.3 µM in the assay with SK-OV-3 ovarian, 1.75 µM with UACC-257 melanoma, 13.7 µM in the assay with RXF 393 renal and 15.9 µM in the assay with SK-MEL-28 melanoma. For the same molecule, the TGI was 40.1 µM in the assay with HL-60(TB) leukemia; 34.1 µM with SW-620 colon; 16.3 µM in the assay with ACHN renal; 19.2 µM in the assay with UO-31 renal; 14.1 µM with NCI-H226 lung; 41.6 µM with NCI-H23 lung. Further, the TGI in the assay on SK-OV-3 ovarian was found to be 34.9 µM; with UACC-257 melanoma, 15.9 µM; in the assay on RXF 393 renal it was 27.1 µM; in the assay with SK-MEL-28 melanoma, 30.5 µM.
Consider `Cc1ccc2c(ccc3c[n+]4c5ccccc5ccc4n32)c1`, for which the GI50 is 2.5 µM in the assay with HL-60(TB) leukemia; 0.508 µM with SW-620 colon; 4.12 µM with ACHN renal; 5.42 µM in the assay on UO-31 renal; 2.43 µM in the assay with NCI-H226 lung; 0.606 µM in the assay on NCI-H23 lung. For the same molecule, the GI50 is 1.76 µM with SK-OV-3 ovarian, 1.43 µM with UACC-257 melanoma, 2.52 µM in the assay on RXF 393 renal and 1.2 µM in the assay with SK-MEL-28 melanoma. The TGI in the assay with HL-60(TB) leukemia was 10.2 µM; in the assay on SW-620 colon, 10.7 µM; with ACHN renal, > 100 µM; in the assay with UO-31 renal, 54 µM; with NCI-H226 lung, 10.4 µM; with NCI-H23 lung, 3.51 µM. Further, the TGI turned out to be 6.94 µM in the assay on SK-OV-3 ovarian, 3.82 µM in the assay on UACC-257 melanoma, 8.81 µM in the assay on RXF 393 renal and 3.32 µM in the assay with SK-MEL-28 melanoma.
